± gives the standard deviation of the averaged measurements.
How the values were obtained:
XAV-939 = compound: Oc1nc(-c2ccc(C(F)(F)F)cc2)nc2c1CSCC2 [XAV-939]; assay: surviving fraction relative to DMSO-only wells; higher = less growth inhibition; settings: exposure time: 5 days
Summary of the method: (§1)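 Surviving fraction is CellTiter-Glo luminescence divided by the median of wells given DMSO only. For this, log-phase tumour cell lines went into 384-well plates at 250–500 cells per well and, 24 hours later, into five days of continuous inhibitor exposure at 0.5, 1, 5, 10, 50, 100, 500 and 1000 nM. Lines were screened three times and retained only if replicate Pearson r >0.7 and median Z' >0.3.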

[1] = compound: COc1cc2ncnc(Nc3ccc(F)c(Cl)c3)c2cc1NC(=O)/C=C/CN1CCCCC1; assay: as above; settings: exposure time: 5 days
Summary of the method: as §1

| Test System | surviving fraction (XAV-939; 0.5 nM) | surviving fraction (XAV-939; 1 nM) | surviving fraction (XAV-939; 5 nM) | surviving fraction (XAV-939; 10 nM) | surviving fraction (XAV-939; 50 nM) | surviving fraction (XAV-939; 100 nM) | surviving fraction (XAV-939; 500 nM) | surviving fraction (XAV-939; 1000 nM) | surviving fraction ([1]; 0.5 nM) | surviving fraction ([1]; 1 nM) | surviving fraction ([1]; 5 nM) | surviving fraction ([1]; 10 nM) | surviving fraction ([1]; 50 nM) | surviving fraction ([1]; 100 nM) | surviving fraction ([1]; 500 nM) | surviving fraction ([1]; 1000 nM) |
| --- | --- | --- | --- | --- | --- | --- | --- | --- | --- | --- | --- | --- | --- | --- | --- | --- |
| SCC36 HEADNECK | 1.07 ± 0.11 | 0.964 ± 0.16 | 1.19 ± 0.045 | 1.06 ± 0.082 | 1.11 ± 0.032 | 1.1 ± 0.077 | 0.825 ± 0.029 | 0.711 ± 0.022 | 0.84 ± 0.054 | 0.889 ± 0.024 | 0.656 ± 0.059 | 0.618 ± 0.0085 | 0.432 ± 0.014 | 0.424 ± 0.057 | 0.338 ± 0.022 | 0.235 ± 0.013 |
| SCC47 HEADNECK | 0.987 ± 0.14 | 1.14 ± 0.058 | 1.08 ± 0.036 | 1.16 ± 0.027 | 1.07 ± 0.047 | 1.11 ± 0.082 | 0.962 ± 0.05 | 0.966 ± 0.093 | 0.927 ± 0.031 | 0.976 ± 0.041 | 0.804 ± 0.1 | 0.745 ± 0.028 | 0.625 ± 0.026 | 0.59 ± 0.025 | 0.512 ± 0.031 | 0.375 ± 0.039 |
| SCC90 HEADNECK | 1.01 ± 0.1 | 1.11 ± 0.18 | 1.08 ± 0.077 | 1.13 ± 0.071 | 1.05 ± 0.03 | 1.05 ± 0.084 | 0.894 ± 0.032 | 0.918 ± 0.07 | 0.948 ± 0.041 | 0.938 ± 0.039 | 0.647 ± 0.1 | 0.608 ± 0.018 | 0.388 ± 0.017 | 0.4 ± 0.024 | 0.377 ± 0.066 | 0.294 ± 0.023 |
| SG27 HEADNECK | 1.1 ± 0.076 | 0.993 ± 0.089 | 1 ± 0.058 | 1.02 ± 0.052 | 1.08 ± 0.049 | 0.966 ± 0.081 | 0.825 ± 0.062 | 0.802 ± 0.11 | 1.06 ± 0.071 | 1.16 ± 0.22 | 0.944 ± 0.14 | 0.937 ± 0.07 | 0.927 ± 0.014 | 1.01 ± 0.061 | 0.988 ± 0.015 | 0.864 ± 0.024 |
| SG28 HEADNECK | 1.01 ± 0.11 | 1.11 ± 0.095 | 0.981 ± 0.083 | 0.967 ± 0.11 | 1.02 ± 0.14 | 0.958 ± 0.07 | 0.912 ± 0.075 | 0.91 ± 0.058 | 0.962 ± 0.064 | 0.924 ± 0.058 | 0.626 ± 0.026 | 0.54 ± 0.013 | 0.514 ± 0.029 | 0.494 ± 0.025 | 0.375 ± 0.037 | 0.238 ± 0.019 |
| SG31 HEADNECK | 1.02 ± 0.12 | 1.13 ± 0.1 | 1.12 ± 0.28 | 1.02 ± 0.046 | 0.985 ± 0.021 | 0.853 ± 0.19 | 0.745 ± 0.055 | 0.747 ± 0.037 | 0.973 ± 0.13 | 0.87 ± 0.19 | 0.617 ± 0.16 | 0.624 ± 0.086 | 0.556 ± 0.14 | 0.519 ± 0.07 | 0.486 ± 0.1 | 0.524 ± 0.021 |
| SG32 HEADNECK | 0.996 ± 0.26 | 1.02 ± 0.092 | 1.66 ± 1.1 | 1.13 ± 0.1 | 1.02 ± 0.12 | 1.08 ± 0.13 | 0.721 ± 0.17 | 0.603 ± 0.034 | 1.24 ± 0.15 | 0.962 ± 0.098 | 0.846 ± 0.018 | 0.958 ± 0.046 | 0.819 ± 0.071 | 0.865 ± 0.029 | 0.695 ± 0.061 | 0.301 ± 0.034 |
| SG43 HEADNECK | 1.07 ± 0.11 | 1.03 ± 0.07 | 0.909 ± 0.17 | 0.806 ± 0.26 | 0.744 ± 0.04 | 0.878 ± 0.17 | 0.9 ± 0.068 | 0.761 ± 0.081 | 0.807 ± 0.14 | 0.929 ± 0.044 | 0.529 ± 0.18 | 0.341 ± 0.057 | 0.199 ± 0.018 | 0.226 ± 0.022 | 0.281 ± 0.095 | 0.196 ± 0.057 |

Reference: the supplement of paper PMC6045584
